Like-named read-outs stand apart in the source and are kept apart here.
Legend:
[1] = target: HDAC2 (Homo sapiens, UniProt Q92769); assay: in vitro biochemical HDAC inhibition assay
[2] = test system: K562 erythroleukemia cells; assay: Gata2 mRNA in K562 cells; assay type: cell-based; conditions: 3 days, FIG. 3
[3] = pharmacokinetics of Compound 001 in rats; assay type: in vivo; conditions: rat, plasma, read-out: minimum drug exposure for the entire dosing period
Method: I. A. Rats were dosed once daily by oral gavage for 6 consecutive days at 0 mg/kg, 10 mg/kg, or 30 mg/kg per dose (See FIG. 25A). Dosing days are indicated by a down arrow (FIG. 25A). Peripheral blood was drawn on the indicated days and analyzed for drug level in plasma (PK), complete blood counts (CBC), or isolation of total ribonucleic acid (RNA). C. […] Points are the average of replicate animals, error bars are the standard deviation of replicate animals (FIG. 25C).

[4] = test system: HbE mRNA; assay: HbE mRNA levels in peripheral blood of rats; assay type: in vivo; conditions: rat, 10 and 30 mg/kg; FIG. 27A-B
Method: I. A. Rats were dosed once daily by oral gavage for 6 consecutive days at 0 mg/kg, 10 mg/kg, or 30 mg/kg per dose (See FIG. 25A). Dosing days are indicated by a down arrow (FIG. 25A). Peripheral blood was drawn on the indicated days and analyzed for drug level in plasma (PK), complete blood counts (CBC), or isolation of total ribonucleic acid (RNA). […] For each individual rat, HbE mRNA was expressed relative to HbB mRNA and then normalized to their predose level (time=day 0). Points are the average of n=4 animals with error bars showing the standard deviation (FIG. 27A).

Sequence of HDAC2 (Q92769 whole entry): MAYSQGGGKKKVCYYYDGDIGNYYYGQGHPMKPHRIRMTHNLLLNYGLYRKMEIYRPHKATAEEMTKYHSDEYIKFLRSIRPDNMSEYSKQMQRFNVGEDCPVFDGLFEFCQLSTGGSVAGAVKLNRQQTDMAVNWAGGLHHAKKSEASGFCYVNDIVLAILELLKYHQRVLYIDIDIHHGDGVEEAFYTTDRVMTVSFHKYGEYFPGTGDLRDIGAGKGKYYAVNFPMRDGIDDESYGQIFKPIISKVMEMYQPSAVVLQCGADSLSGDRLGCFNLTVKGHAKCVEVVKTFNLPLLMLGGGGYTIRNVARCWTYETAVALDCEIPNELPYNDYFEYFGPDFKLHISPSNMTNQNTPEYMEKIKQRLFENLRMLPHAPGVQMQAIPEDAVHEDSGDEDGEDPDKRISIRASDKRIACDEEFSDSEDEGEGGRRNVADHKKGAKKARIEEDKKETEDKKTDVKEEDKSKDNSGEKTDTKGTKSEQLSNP

For `Nc1ccc(-c2cccs2)cc1NC(=O)c1ccc2nc(N3CCNCC3)ccc2c1` [Compound 001, N-(2-amino-5-(thiophen-2-yl)phenyl)-2-(piperazin-1-yl)quinoline-6-carboxamide], the IC50 ([1]; Table 2, read-out: IC50 HDAC2) was 15 nM, the IC50 ([1]; pre-incubation time of 24 hours, FIG. 9A, 17B, read-out: IC50 against HDAC2) was 18 nM and the “Gata2 mRNA” value [2] was “dose dependent response”. The concentration at 6 days ([3]; high dose (30 mg/kg once daily oral gavage, 6 days)) was no less than 5000 nM, the concentration at 6 days ([3]; low dose (10 mg/kg once daily oral gavage, 6 days)) was no less than 1000 nM and the “HbE mRNA relative to HbB mRNA, normalized to predose” value [4] was “dose-dependent increase”.

Reference: patent publication US20160137630A1, “INDUCTION OF GATA2 BY HDAC1 AND HDAC2 INHIBITORS” (ACETYLON PHARMACEUTICALS, INC., priority 2014, published 2016)
